The text below walks through data of patent publication US10689595B2 (THE REGENTS OF THE UNIVERSITY OF CALIFORNIA, priority 2016, dated 2020).

Assay [1] relates to naïve rats. The experiment in a line: von Frey mechanical allodynia assay in naïve rats. The format is in vivo, Sprague-Dawley rats. Particulars: methyl esters, 1 μg intraplantar, FIG. 6A. As for the experimental part: Male Sprague-Dawley rats weighing approximately 250-300 grams were obtained from Charles River Laboratories. On the day of the test, rats were brought to the testing apparatus and allowed to acclimate. The apparatus is a raised metal mesh platform with clear acrylic chambers to enclose rats but allow them to move freely. After 30 minutes the rats were tested with a von Frey aesthesiometer for their non-treated baseline withdrawal thresholds using a rigid tip on the plantar surface of the rat hind paw though the mesh floor. The scores are grams of force applied to the hind paw required to elicit a withdrawal. The pretreatment baseline score was considered the pain-free baseline (BL) and was assigned 100% for further response calculations.
For the pain assay, 20-HETE methyl ester, 20-HEPE methyl ester, or 22-HDoHE methyl ester, formulated in 10% EtOH in saline, were injected intraplantar in naïve rats. Withdrawal thresholds were measured at 15, 30, 60, 90, 120 and 150 minutes post injection. Reported scores are calculated as a percent of the pretreatment baseline score with an average of 6 rats (3 trials per rat) with SEM for the group.
The methyl esters compounds of 20-HETE, 20-HEPE and 22-HDoHE were tested for their ability to induce mechanical allodynia in vivo. For the assay, naïve rats were injected intraplantar with 1 μg of each ester and tested with an electronic von Frey aesthesiometer.

Assay [2] addresses T1, ovine COX-1 (Ovis aries, UniProt P05979).
T1 construct: purchased Cayman Chemical 700100
T1 sequence (P05979 25-600): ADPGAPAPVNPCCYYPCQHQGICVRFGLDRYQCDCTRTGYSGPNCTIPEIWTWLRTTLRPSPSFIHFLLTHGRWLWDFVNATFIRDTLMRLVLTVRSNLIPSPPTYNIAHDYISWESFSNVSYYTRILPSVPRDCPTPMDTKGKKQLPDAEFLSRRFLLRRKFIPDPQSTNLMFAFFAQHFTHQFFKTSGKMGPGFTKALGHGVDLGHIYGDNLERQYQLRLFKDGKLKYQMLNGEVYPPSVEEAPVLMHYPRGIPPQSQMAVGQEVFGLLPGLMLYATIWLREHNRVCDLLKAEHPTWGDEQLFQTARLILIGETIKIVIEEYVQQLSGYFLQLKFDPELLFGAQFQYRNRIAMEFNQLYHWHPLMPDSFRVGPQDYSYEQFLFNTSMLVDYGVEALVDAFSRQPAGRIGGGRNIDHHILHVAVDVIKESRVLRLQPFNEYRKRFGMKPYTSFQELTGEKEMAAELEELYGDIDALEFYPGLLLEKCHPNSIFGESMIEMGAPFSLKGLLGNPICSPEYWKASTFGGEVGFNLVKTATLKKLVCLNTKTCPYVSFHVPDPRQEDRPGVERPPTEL
Kind of assay: COX Fluorescent Inhibitor Screening Assay, COX-1. The format is biochemical. The following applies: read-out: % inhibition at 100 μM COX-1, triplicate. As for the experimental part: (§1) Briefly, to a series of supplied reaction buffer solutions (150 μl, 100 mM Tris-HCl, pH 8.0) with either COX-1 or COX-2 (10 μl) enzyme in the presence of Heme (10 μl) and fluorometric substrate (10 μl) were added 10 μl of 100 μM concentration of the test compound solutions. The reactions were initiated by adding 10 μl of ARA solution and then incubated for two minutes at room temperature. Percent inhibition was calculated by comparison from the 100% initial activity sample value (no inhibitor).

Assay [3] has as its target T2, human COX-2 (Homo sapiens, UniProt P35354).
T2 construct: purchased Cayman Chemical 700100
T2 sequence (P35354 18-604): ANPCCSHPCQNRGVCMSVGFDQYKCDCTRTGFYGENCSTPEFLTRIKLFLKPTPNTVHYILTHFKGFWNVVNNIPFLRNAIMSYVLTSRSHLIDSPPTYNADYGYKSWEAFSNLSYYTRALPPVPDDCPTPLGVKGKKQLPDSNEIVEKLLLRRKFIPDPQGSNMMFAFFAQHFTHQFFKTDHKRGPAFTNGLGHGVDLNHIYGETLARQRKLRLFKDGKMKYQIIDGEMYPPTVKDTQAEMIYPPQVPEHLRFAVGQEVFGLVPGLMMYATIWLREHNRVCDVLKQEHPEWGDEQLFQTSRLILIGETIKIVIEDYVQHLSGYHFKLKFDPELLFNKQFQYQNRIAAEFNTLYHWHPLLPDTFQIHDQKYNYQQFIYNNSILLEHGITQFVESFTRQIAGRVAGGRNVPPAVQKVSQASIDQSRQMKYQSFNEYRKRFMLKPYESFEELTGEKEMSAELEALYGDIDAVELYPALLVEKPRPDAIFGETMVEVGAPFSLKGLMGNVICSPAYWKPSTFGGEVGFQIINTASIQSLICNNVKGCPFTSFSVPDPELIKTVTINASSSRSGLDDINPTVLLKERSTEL
Kind of assay: COX Fluorescent Inhibitor Screening Assay, COX-2. The assay is classed as biochemical. Particulars: for inhibition at 100 µM: read-out: % inhibition at 100 μM COX-2, triplicate; for COX-2 activity changes: up to 100 μM concentrations. The method, then: as §1

Assay [4] deals with T3, mTRPV1 (Mus musculus, UniProt Q704Y3).
T3 construct: GFP; expressed in transfected cells; host or cells: HEK-293 (transient transfection; plasmid a gift from Jie Zheng, UC Davis)
The experiment in a line: calcium influx assay in HEK293 cells heterologously expressing mTRPV1. The format is cell-based. Particulars: for concentration that produced significant Ca2+ influx: HEK293 cells expressing mTRPV1, fluo-4, FIG. 4; for TRPV1 channel activation: at low doses. The method, then:
The mTRPV1 plasmid that contains a GFP tag was a generous gift from Professor Jie Zheng at University of California, Davis. The HEK-293 cells were cultured in a poly-D-lysine coated T75 dish at an initial density of 4×10^5 cells/dish and maintained in culture medium (DMEM+10% FBS+100 units/ml peniclillin, 0.1 mg/ml streptomycine) in an incubator at 37° C. with 5% CO2 and 95% humidity. At 50% confluence, the HEK-293 cells were transfected with 10 μg of mTRPV1 plasmid using Lipofectamine 2000 (Invitrogen Corporation, Carlsbad, Calif., USA) in antibiotic—as well as serum-free culture medium. After 6 hour incubation, the serum-free medium was replaced with normal culture medium and the cells were cultured for another 48 hours. The transfection efficiency was determined by examined the GFP expression as well as the Ca^2+ response after exposure to capsaicin.
The HEK-293 cells transiently transfected mTRPV1 were planted onto poly-D-lysine (Sigma-Aldrich, St. Louis, Mo., USA) coated black-well, clear-bottom, 96-well plates (Corning, Coring, N.Y., USA) at an initial density of 40,000/well. The cells were then cultured in DMEM medium for 18-24 hours as described previously (Ref. 38). Briefly, the growth medium was removed and replaced with dye loading buffer (100 μl/well) containing 4 μM fluo-4 and 0.5 mg/ml BSA in Locke's buffer (in mM: 8.6 HEPES, 5.6 KCl, 154 NaCl, 5.6 Glucose, 1.0 MgCl2, 2.3 CaCl2), 0.0001 glycine, pH 7.4). After 1 hour incubation in dye loading buffer, cells were washed four times in fresh Locke's buffer and transferred to the plate chamber of FLIPR^TETRA (Molecular Devices, Sunnyvale, Calif., USA). The final volume of Locke's buffer in each well was 150 μl. The cells were excited at 488 nm and Ca^2+ bound fluo-4 emission at 535 nm was recorded. Fluorescence readings were taken every 1 second for 120 s to establish the baseline. Different concentrations (4×) of compounds were added to the cells from a compound plate in a volume of 50 μl at a rate of 30 μl/s using a programmable robotic system. The fluorescence signals were recorded for an additional 380 seconds. All the experiments were performed at room temperature. The Ca^2+ data were represented as Fluo-4 fluorescence units (F/Fo). For quantifying the Ca^2+ response, the area under the curve (AUC) was used. Graphing and statistical analyses were performed using GraphPad Prism software (GraphPad Software Inc., San Diego, Calif.). Statistical significance was determined by an ANOVA and, where appropriate, a Dunnett's multiple comparison test and p values below 0.05 was considered statistically significant.
The influence of 20-HETE, 20-HEPE, and 22-HDoHe on mTRPV1 was measured in HEK293 cells heterologously expressed mTRPV1 using calcium influx assay. […] The discrepancy between previous study and current study is likely due to the fact that the mTRPV1 was used in the current study, while the hTRPV1 was used in the previous study.

For assay [5], the target named is hTRPV1 (Homo sapiens, UniProt Q8NER1). The following applies: 10 μM, previous study (Ref 24); cited from earlier work.
In assay [6] the test system is HMVEC-dLy. The experiment in a line: complete medium-induced HMVEC-dLy migration, Boyden chamber assay. Particulars: FIG. 11. The assay is classed as cell-based, human.
Assay [7] has as its system B16F10 melanoma. Kind of assay: B16F10 melanoma primary tumor growth model. The assay is classed as in vivo. The following applies: 0.5 mg/kg/day by mini-pumps, 2-wk treatment, C57BL/6 mice. The method, then: FIG. 9 is a photograph and a bar graph showing systematic treatment of 0.5 mg/kg/day 22-HDoHE inhibited ˜50% of B16F10 melanoma growth in C57BL/6 male mice. B16F10 melanoma cells (200,000 cells per mouse) were sub-Q injected into C57BL/6 mice to induce primary tumor growth of melanoma, then the mice were treated with 22-HDoHE using mini-pumps at a dose of 0.5 mg/kg/day. After 2-wk treatment, the mice were sacrificed to dissect the tumors for analysis.
Angiogenesis has been well established to play an essential role in cancer, through providing nutrients and oxygen to the tumors tissues to promote tumor progression. The effect of 22HDoHE on primary tumor growth in mice was studied using a highly aggressive B16F10 melanoma model in C57BL/6 mice.

For assay [8], the system named is human umbilical vein endothelial cells (HUVECs). Kind of assay: VEGF-induced endothelial cell migration (Boyden chamber). The assay is classed as cell-based. Particulars: dose range of 1-3 μM, 10 ng/mL VEGF, 6 hours. As for the experimental part:
FIG. 8 is a series of photographs showing 22-HDoHE inhibition of VEGF-induced endothelial cell migration in HUVEC cells. The cell migration assay was conducted using a standard Boyden chamber assay with 10 ng/mL VEGF as chemoattractant, and the assay time was 6 hours.
It was tested whether 22-HDoHE has direct anti-angiogenic actions in primary endothelial cells, using a VEGF-induced endothelial cell migration in human umbilical vein endothelial cells (HUVECs).

For assay [9], the system named is human dermal lymphatic endothelial cells (HMVEC-dLy). The experiment in a line: VEGF-C-induced tube formation. The assay is classed as cell-based. Particulars: dose-dependent manner, FIG. 10. The method, then:
The effect of 22-HDoHE on lymphangiogenesis was evaluated using a vascular endothelial growth factor-C (VEGF-C)-induced tube formation in human dermal lymphatic endothelial cells (HMVEC-dLy).

Assay [10] has as its system VEGF-induced angiogenesis. Kind of assay: Matrigel plug angiogenesis assay. The assay is classed as in vivo. Particulars: co-addition in Matrigel with 100 ng VEGF, C57BL/6 mice. The method, then:
FIG. 7A is a simplified scheme of the animal experiment: Matrigel containing VEGF (angiogenesis inducer) and 22-HDoHE or vehicle were injected into C57BL/6 mice, after 4-7 days of treatment, the Matrigel plugs were dissected and subjected to angiogenesis analysis.
Angiogenesis, the process of formation of new blood vessels from pre-existing vessels, has been established to be critical for multiple human diseases including cancer. Vascular endothelial growth factor (VEGF) is the most important angiogenesis inducer.

Broadly, the inhibition is the share of the control response that was lost under treatment.

T3 sequence (Q704Y3 whole entry): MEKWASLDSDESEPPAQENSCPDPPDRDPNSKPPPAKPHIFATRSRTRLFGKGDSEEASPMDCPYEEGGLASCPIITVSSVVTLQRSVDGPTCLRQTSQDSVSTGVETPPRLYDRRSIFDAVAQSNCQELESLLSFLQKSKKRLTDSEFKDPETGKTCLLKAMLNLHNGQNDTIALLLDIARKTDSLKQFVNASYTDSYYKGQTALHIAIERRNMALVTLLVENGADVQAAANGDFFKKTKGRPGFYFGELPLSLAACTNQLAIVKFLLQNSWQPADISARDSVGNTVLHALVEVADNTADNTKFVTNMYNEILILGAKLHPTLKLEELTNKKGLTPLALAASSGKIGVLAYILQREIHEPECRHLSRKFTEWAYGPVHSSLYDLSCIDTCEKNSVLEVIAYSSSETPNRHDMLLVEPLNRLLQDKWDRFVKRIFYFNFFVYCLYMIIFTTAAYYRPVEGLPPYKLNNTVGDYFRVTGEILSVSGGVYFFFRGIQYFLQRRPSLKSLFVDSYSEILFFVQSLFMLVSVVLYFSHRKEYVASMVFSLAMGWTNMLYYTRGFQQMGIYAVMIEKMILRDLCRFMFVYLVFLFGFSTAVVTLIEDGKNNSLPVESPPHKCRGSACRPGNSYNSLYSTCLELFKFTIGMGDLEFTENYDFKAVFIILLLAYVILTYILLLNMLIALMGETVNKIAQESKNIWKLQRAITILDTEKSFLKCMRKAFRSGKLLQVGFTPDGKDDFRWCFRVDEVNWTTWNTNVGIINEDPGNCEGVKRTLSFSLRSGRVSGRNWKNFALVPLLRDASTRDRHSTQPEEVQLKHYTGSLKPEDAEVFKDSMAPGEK
hTRPV1, sequence (Q8NER1 whole entry): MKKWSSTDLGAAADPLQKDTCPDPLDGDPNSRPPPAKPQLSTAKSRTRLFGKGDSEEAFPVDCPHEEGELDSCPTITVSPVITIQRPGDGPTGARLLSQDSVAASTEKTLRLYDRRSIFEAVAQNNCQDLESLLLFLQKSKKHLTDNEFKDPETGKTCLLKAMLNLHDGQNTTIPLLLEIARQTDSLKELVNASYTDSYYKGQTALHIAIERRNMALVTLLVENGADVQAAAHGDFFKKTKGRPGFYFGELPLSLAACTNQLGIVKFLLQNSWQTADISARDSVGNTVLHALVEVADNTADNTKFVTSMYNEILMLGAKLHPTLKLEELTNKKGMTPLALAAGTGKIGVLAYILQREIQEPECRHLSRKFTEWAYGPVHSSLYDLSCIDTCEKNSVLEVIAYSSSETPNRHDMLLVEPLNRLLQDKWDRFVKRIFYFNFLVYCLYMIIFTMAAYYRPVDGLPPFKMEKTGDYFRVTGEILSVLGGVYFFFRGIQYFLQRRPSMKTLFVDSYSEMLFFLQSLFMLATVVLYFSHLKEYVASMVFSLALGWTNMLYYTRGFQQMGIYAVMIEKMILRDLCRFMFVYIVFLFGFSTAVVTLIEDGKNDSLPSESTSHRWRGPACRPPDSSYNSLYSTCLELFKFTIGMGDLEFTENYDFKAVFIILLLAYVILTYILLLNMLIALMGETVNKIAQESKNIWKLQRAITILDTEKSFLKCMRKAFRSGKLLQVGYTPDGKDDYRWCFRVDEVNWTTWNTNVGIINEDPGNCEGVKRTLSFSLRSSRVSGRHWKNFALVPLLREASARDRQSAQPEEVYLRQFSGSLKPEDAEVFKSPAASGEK

`COC(=O)CCC/C=C\C/C=C\C/C=C\C/C=C\C/C=C\CCO`: the “nociceptive (withdrawal) thresholds, von Frey” value (shortened to “nociceptive”) in assay [1] is given as “neither 20-HEPE nor 22-HDoHE induced a similar decrease in thresholds”.

As for `COC(=O)CCC/C=C\C/C=C\C/C=C\C/C=C\CCCCCO`, the “nociceptive” value in assay [1] is reported as “decreased nociceptive thresholds acutely”.

Consider `O=C(O)CCC/C=C\C/C=C\C/C=C\C/C=C\C/C=C\CCO` [20-HEPE, (5Z,8Z,11Z,14Z,17Z)-20-Hydroxyicosa-5,8,11,14,17-pentaenoic Acid], for which, in [2], the inhibition at 100 µM was 37.1%. In addition, the inhibition at 100 µM in assay [3] came to 0%. The COX-2 activity changes result in assay [3] (FIG. 5) is recorded as “No COX-2 activity changes”. Moreover, in assay [4], the “concentration that produced significant Ca2+ influx” value came out at 10 µM and the TRPV1 channel activation result is “did not activate TRPV1 channels”.

Regarding `O=C(O)CCC/C=C\C/C=C\C/C=C\C/C=C\CCCCCO` [20-HETE, (5Z,8Z,11Z,14Z)-20-Hydroxyicosa-5,8,11,14-tetraenoic Acid], the hTRPV1 activation entry in assay [5] is “activates hTRPV1”. Besides, the inhibition at 100 µM was 27.5% in [2] and 0% in assay [3]. The COX-2 activity changes result in assay [3] (FIG. 5) is reported as “No COX-2 activity changes”. Besides, in [4] (at or below concentration of 10 uM), the mTRPV1 activation result is given as “does not appear to be an mTRPV1 activator”. Also, in assay [4] (at the concentrations examined, FIG. 4), the “Ca2+ response” value is “marginal Ca^2+ response”.

As to `O=C(O)CC/C=C\C/C=C\C/C=C\C/C=C\C/C=C\C/C=C\CCO` [22-HDoHE, (4Z,7Z,10Z,13Z,16Z,19Z)-22-Hydroxydocosa-4,7,10,13,16,19-hexaenoic Acid], in [2], the inhibition at 100 µM came out at 38.1%. For the same compound, the “complete medium-induced HMVEC-dLy migration” value in [6] was “significantly inhibit”. Further, in assay [7], the “reduction of B16F10 tumor growth” value was around 50%. Also, the “VEGF-induced HUVECs migration” value in [8] is “significantly inhibited”. Besides, in assay [3], the inhibition at 100 µM turned out to be 1%. Besides, the COX-2 activity changes result in [3] (FIG. 5) was “No COX-2 activity changes”. The “VEGF-C-induced tube formation in HMVEC-dLy cells” value in assay [9] was “significantly inhibited”. For the same compound, the “VEGF-induced angiogenesis in Matrigel plugs” value in assay [10] is given as “almost abolished VEGF-induced angiogenesis”. Also, in assay [4], the “concentration that produced significant Ca2+ influx” value was around 3 µM and the TRPV1 channel activation result is on record as “did not activate TRPV1 channels”.

On to `COC(=O)CC/C=C\C/C=C\C/C=C\C/C=C\C/C=C\C/C=C\CCO` [22-HDoHE], for which, in assay [1], the “nociceptive” value is “neither 20-HEPE nor 22-HDoHE induced a similar decrease in thresholds”.

Consider `CC/C=C\C/C=C\C/C=C\C/C=C\C/C=C\CCCC(=O)O` [EPA, eicosapentaenoic acid, reference compound], for which the “COX inhibitory activity (% inhibition), COX-2” value in [3] (FIG. 5) is reported as “Less than 0%”.
